Patent US7326679B2, “Anticancer peptide compositions” (TranXenoGen, Inc., priority 2003, dated 2008)
Entries after “also recorded” stand apart in the source; their conditions may differ. Square brackets hold non-standard residues; d marks the D form. Ends that are not written are not given here. pGlu = O=C1CC[C@@H](C(=O)O)N1

Columns and labels:
[1] = system: OSRC human osteogenic sarcoma tumor; assay: Osteosarcoma (OSRC) tumor model in nude mice; format: in vivo, Nude nu/nu mice; conditions: SQ treatments on days 8, 11, 14 and 17; n=4
Method: Tumor cell culture and harvesting was carried out as follows. Human osteogenic sarcoma cancer cells (OSRC cell line) was grown in DMEM containing additional non-essential amino acids and vitamins and 10% heat inactivated fetal bovine serum (Invitrogen™, Carlsbad, Calif.). Cells in log phase were harvested from flasks using trypsin-EDTA (0.05% trypsin/0.53 mM Na-EDTA; Invitrogen™), washed in PBS and resuspended in DMEM for counting and viability assessment using trypan blue exclusion. Cells were resuspended at 2.5×10^7 cells per ml in PBS for injection into the mice.
Nude nu/nu mice (4 to 5 week-old females, Charles River Labs, Wilmington, Mass.) were acclimated for 1 week before injection with 2.5 million OSRC cells subcutaneously (SQ) in a total volume of 100 μl. After 8 days of tumor development, the mice were injected SQ with each peptide or the protein pool prepared in phosphate buffered saline (PBS) containing 0.05% sodium dodecyl sulfate (SDS) or PBS+0.05% SDS alone (Control). All doses were 200 μl in volume, with additional treatments on days 11, 14 and 17 post-transplantation. Treatments were alternated between flanks of the mice. Tumor size (length, width and height) and mouse weights were measured three times per week. The results (FIGS. 6A-B) represent the average of the 4 mice in each group. […]

[2] = system: bFGF induced angiogenesis; assay: Chicken chorioallantoic membrane (CAM) assay; format: in vivo, White Leghorn chick embryos; conditions: for inhibition of bFGF-induced angiogenesis: day-10 chick embryos; for anti-angiogenic activity in CAM assay (overall): increasing doses, 100 ng or 200 ng bFGF, 48 hours at 37° C.
Description: The chicken chorioallantoic membrane (CAM) assay was completed to assess the effect of the peptides on basic fibroblast growth factor (bFGF) induced angiogenesis. Small windows were created through the blunt end of the shell directly over the air sac of 9-10 day old White Leghorn chick embryos with the use of a small crafts Dremel drill. The air sac was peeled-off, and filter disks saturated with basic fibroblast growth factor (bFGF) and the test peptide (or buffer control) were placed adjacent to each other on the CAM of the chick embryo. The shell windows were sealed with parafilm and eggs were incubated at 37° C. in a humidified egg incubator. After 48-72 hours, the CAM tissue directly below the filter disks was resected. Tissues were washed three times with PBS and analyzed using a stereomicroscope. The number of branching blood vessels infiltrating under the filter disks were determined and documented.

CAM tissue cells = assay: Detection of cell death in resected CAM tissues (H-33342 and propidium iodide staining); format: in vivo, chick embryos; conditions: for apoptosis / DNA fragmentation (H-33342 staining): 100 ng bFGF plus 200 ng peptide
Method: Following staining, the tissues were washed three times in PBS and fixed in 4% formalin. The tissues were visualized under epifluorescence using a photo-digital imaging system. The number of live, apoptotic and necrotic cells were determined.

[3] = system: neo-vascularization of early chick embryo; assay: Chick embryo neo-vascularization inhibition assay; format: in vivo, White Leghorn chick embryos; conditions: day-3.5 chick embryo, filter disks
Description: This assay was completed to determine the impact of Pep A and Pep B on neo-vascularization of early chick embryo. Small windows were created through the blunt end of the shell directly over the air sac of 3.5-day old White Leghorn chick embryos with the use of a small crafts Dremel drill. The air sac was peeled-off and filter disks with different concentrations of the test peptide or buffer control were placed over a section of the developing blood ring and overlapping connecting vessels of the chick embryo. The shell windows were sealed with parafilm and eggs were incubated at 37° C. in a humidified egg incubator. After 48-72 hours, the yolk membrane tissue directly below the filter disks was resected. Tissues were washed three times with PBS and analyzed for inhibition of neo-vascularization using a stereomicroscope with photo-digital attachment.

HeLa tumor = assay: In vivo nude mice experiment, HeLa tumor growth; design: species or system Nude nu/nu mice; conditions: for inhibition of HeLa tumor growth during treatment phase (average tumor volume): n=3; for tumor growth profile post treatment: after fourth treatment until day 24, Pep A 500 and 750 μg, Pep B 500 μg; for response of individual tumors to treatment: tumor volumes on day 14, one day post last treatment; for vascularization and infiltration of isolated tumors (histopathology): compared to control mice
Method: The HeLa human cervical cancer cell line (ATCC, Manassas Va.; CCL-2) was grown according to direction in DMEM containing 10% fetal bovine serum. Cells in log phase were harvested from flasks using trypsin-EDTA (0.25% trypsin/1 mM Na-EDTA; Invitrogen), washed in PBS and resuspended in DMEM for counting and viability assessment using trypan blue exclusion. […] Cells were resuspended at 5×10^7 cells/mL in PBS for injection into the mice.
Nude nu/nu mice (4 to 5 week-old females) were acclimated for 1 week and injected with 5 million HeLa cells subcutaneously (SQ) in a total volume of 100 μL. After 3 days of tumor development, the mice were injected SQ with each peptide prepared in phosphate buffered saline (PBS) containing 0.05% sodium dodecyl sulfate (SDS) or PBS+0.05% SDS alone. All doses were 200 μL in volume, with additional treatments on days 6, 10 and 13 post-transplantation. Treatments were alternated between flanks of the mice. Tumor size and mouse weights were measured three times per week. The results represent the average of the 3 mice in each group. The experiment was terminated on day 24 and the tumors were excised for weight and histopathology.
HeLa cells (5×10^6 cells in 100 μL were administered subcutaneously (SQ). The cells were implanted in the left mid-flank region of 5 week old immunodeficient Nude nu/nu female mice (Charles River Labs, Wilmington, Mass.) and allowed to develop to palpable size (average diameter=[…]; average volume=24 mm^3). Mice were randomized and divided into experimental groups, with 3 mice per group. The mice were treated with SQ injections (200 μL) of various doses of peptide in phosphate buffered saline (PBS) containing a detergent, e.g., 0.05% sodium dodecyl sulphate (SDS). Control mice were injected with PBS containing 0.05% SDS alone. […] The treatments were administered on days 3, 6, 10 and 13 post-transplantation. Tumors were measured three times per week until the experiment was terminated on day 24 post-transplantation.

[4] = 200 ng peptide with 100 ng bFGF
[5] = 500 μg per dose SQ on days 3, 6, 10 and 13

Row | Substance | osteosarcoma tumor volume (tumor burden) [1] | suppression of bFGF-induced angiogenesis ([2]; 200 ng of bFGF) | inhibition of bFGF-induced angiogenesis [2, 4] | inhibition of bFGF-induced angiogenesis ([2]; Pep A with 100 ng bFGF) | anti-angiogenic activity in CAM assay (overall) [2] | apoptosis / DNA fragmentation (H-33342 staining) (CAM tissue cells) | apoptosis / DNA fragmentation (H-33342 staining) (CAM tissue cells; listed as PepA) | suppression of neo-vascularization / branching vessel formation [3] | inhibition of HeLa tumor growth during treatment phase (average tumor volume) (HeLa tumor; [5]) | inhibition of HeLa tumor growth during treatment phase (average tumor volume) (HeLa tumor; 750 μg per dose SQ on days 3, 6, 10 and 13) | tumor growth profile post treatment (HeLa tumor) | response of individual tumors to treatment (HeLa tumor) | areas of cell death in isolated tumors (histopathology) (HeLa tumor; tumors isolated upon sacrifice) | vascularization and infiltration of isolated tumors (histopathology) (HeLa tumor; tumors isolated upon sacrifice) | condensation of the cell nuclei (CAM tissue cells; compared to controls)
1 | 6 mer: residues 5-10 of SEQ ID NO:1 (YTCKEP) | reduction of osteosarcoma tumor volume |  |  |  |  |  |  |  |  |  |  |  |  |  | 
2 | ELKCYTCKEPMTSASCRTIT [Pep A] | reduction of osteosarcoma tumor volume | showed suppression | comparatively better inhibition of blood vessel infiltration | inhibition of neo-vascularization and infiltration as well as degradation of pre-existing vessels | inhibited angiogenesis; also recorded: more potent anti-angiogenic agent | Intensely staining apoptotic nuclei (white) of vascular cells; also recorded: significant increase in DNA fragmentation | induces cell death by apoptosis | dose dependent suppression of branching vessel formation | tumor inhibition during the treatment phase | tumor inhibition during the treatment phase | slight increase in tumor burden; also recorded: only limited tumor growth for the duration of the experiment | response of all animals | larger areas of cell death; also recorded: noticeably larger | significantly less vascularization and infiltration | 
3 | pyroELKCYTCKEPMTSASCRTIT ([pGlu]LKCYTCKEPMTSASCRTIT; cysteine pairing not given here) [Pep B] |  |  | inhibition of bFGF-induced angiogenesis |  | inhibited angiogenesis | did not demonstrate the peri-vascular apoptosis; also recorded: minimal increase in apoptosis over the control |  | dose dependent suppression of branching vessel formation | tumor inhibition during the treatment phase |  | escalation of tumor burden; also recorded: lost shortly after treatment stopped | response of all animals |  | significantly less vascularization and infiltration | observable condensation of the cell nuclei
